Measured values taken from patent US12403137B2, “Compounds and methods of use” (Tango Therapeutics, Inc., priority 2019, dated 2025).

Assays:
[1] = tested on: HAP1 MTAP-deleted cell line; test: SDMA in-cell western assay, HAP1 MTAP-deleted; format: cell-based; conditions: for IC50: Homo sapiens, HAP1 MTAP-deleted (MTAP-null) cell line; for MTAP Intact/Deleted Ratio: IC50 ratio HAP1 MTAP-intact / HAP1 MTAP-deleted, >=3 fold considered MTAP-selective
How it was run: (§1)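 IC50 values come from an SDMA in-cell western run in isogenic HAP1 cells, either MTAP-null or expressing endogenous MTAP. The intact-to-deleted IC50 ratio is used to score MTAP selectivity.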

[2] = tested on: HAP1 MTAP-intact cell line; test: SDMA in-cell western assay, HAP1 MTAP-intact; format: cell-based; conditions: Homo sapiens
How it was run: as §1

[3] = molecular target: T1, PRMT5 (Homo sapiens, UniProt O14744); test: PRMT5 inhibition assay with no cofactor; format: biochemical; conditions: against PRMT5 with no cofactor; read-out: No Co-factor IC50
T1 construct: purchased Viva (custom protein)

[4] = molecular target: T1, PRMT5; test: PRMT5 inhibition assay with MTA as cofactor; format: biochemical; conditions: for IC50: against PRMT5 with MTA as cofactor; for SAM/MTA Ratio: ratio of Ki in the presence of SAM to Ki in the presence of MTA, Ki=IC50/1.5 (SAM), Ki=IC50/13.5 (MTA)
Description: (§2) The Ki values can be calculated from the IC50 values as described in the Examples section. As detailed in the Examples section, for the assay performed in the presence of SAM, IC50=Ki×1.5 (Ki=IC50/1.5). For the assay performed in the presence of MTA, IC50=Ki×13.5 (Ki=IC50/13.5). Column 6 indicates the ratio between the Ki of compounds in the presence of SAM and the Ki of compounds in the presence of MTA

[5] = molecular target: T1, PRMT5; test: PRMT5 inhibition assay with SAM as cofactor; format: biochemical; conditions: against PRMT5 in the presence of SAM as cofactor
Description: as §2

T1 sequence (O14744 whole entry): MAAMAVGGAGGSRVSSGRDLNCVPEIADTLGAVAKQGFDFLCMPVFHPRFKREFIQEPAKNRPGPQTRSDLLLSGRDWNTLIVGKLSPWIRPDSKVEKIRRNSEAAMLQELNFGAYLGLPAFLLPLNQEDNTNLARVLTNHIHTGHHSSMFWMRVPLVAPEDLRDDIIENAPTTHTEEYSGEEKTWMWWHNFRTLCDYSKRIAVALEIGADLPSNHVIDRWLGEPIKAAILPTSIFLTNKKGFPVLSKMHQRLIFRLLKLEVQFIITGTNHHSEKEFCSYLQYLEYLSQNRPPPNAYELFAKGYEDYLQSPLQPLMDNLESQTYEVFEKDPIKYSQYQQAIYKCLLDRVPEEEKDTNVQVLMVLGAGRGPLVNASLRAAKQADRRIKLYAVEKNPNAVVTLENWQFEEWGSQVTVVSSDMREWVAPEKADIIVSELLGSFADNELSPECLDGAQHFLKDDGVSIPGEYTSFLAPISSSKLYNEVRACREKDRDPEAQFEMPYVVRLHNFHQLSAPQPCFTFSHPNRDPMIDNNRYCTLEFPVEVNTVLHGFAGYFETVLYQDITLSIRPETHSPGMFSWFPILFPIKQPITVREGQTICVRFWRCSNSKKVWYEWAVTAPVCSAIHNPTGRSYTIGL
T1 sequence (Q9BQA1 whole entry partner): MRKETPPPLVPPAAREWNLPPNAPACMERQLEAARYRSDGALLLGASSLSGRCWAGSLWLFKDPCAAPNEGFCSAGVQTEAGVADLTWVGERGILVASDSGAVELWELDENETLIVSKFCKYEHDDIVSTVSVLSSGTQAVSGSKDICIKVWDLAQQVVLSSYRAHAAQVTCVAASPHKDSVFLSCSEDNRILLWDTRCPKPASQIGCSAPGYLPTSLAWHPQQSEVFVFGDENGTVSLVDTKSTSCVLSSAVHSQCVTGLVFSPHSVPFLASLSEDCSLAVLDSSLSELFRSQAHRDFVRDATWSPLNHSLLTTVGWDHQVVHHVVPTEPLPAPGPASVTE

Structure (SMILES)	IC50 [1] [nM]	MTAP Intact/Deleted Ratio [1]	IC50 [2] [nM]	IC50 [3] [nM]	IC50 [4] [nM]	SAM/MTA Ratio [4]	IC50 [5] [nM]
CC(=O)N1CC(Nc2cc(C(=O)NC[C@@H](O)[C@@H]3Cc4ccc(OCc5ocnc5C)cc4CN3)cc(N3CCCCC3)c2)C1 [Compound 59, 3-[(1-acetylazetidin-3-yl)amino]-N-[(2R)-2-hydroxy-2-[(3S)-7-[(4-methyloxazol-5-yl)methoxy]-1,2,3,4-tetrahydroisoquinolin-3-yl]ethyl]-5-(1-piperidyl)benzamide]	≥ 10000	C* (an IC50 ratio of less than 3 fold between the IC50 in the HAP1 MTAP-intact cell line and the HAP1 MTAP-deleted cell line)	≥ 10000	50 to 500	50 to 500	A (a Ki ratio greater than or equal to 10 fold between the Ki in the presence of SAM and the Ki in the presence of MTA)	50 to 500
CC(=O)N1CCC(Nc2cc(C(=O)NC[C@@H](O)[C@@H]3Cc4ccc(OCc5ocnc5C)cc4CN3)cc(N3CCCCC3)c2)CC1 [Compound 60, 3-[(1-acetyl-4-piperidyl)amino]-N-[(2R)-2-hydroxy-2-[(3S)-7-[(4-methyloxazol-5-yl)methoxy]-1,2,3,4-tetrahydroisoquinolin-3-yl]ethyl]-5-(1-piperidyl)benzamide]	1000 to 10000	C* (an IC50 ratio of less than 3 fold between the IC50 in the HAP1 MTAP-intact cell line and the HAP1 MTAP-deleted cell line)	≥ 10000	50 to 500	< 50	A (a Ki ratio greater than or equal to 10 fold between the Ki in the presence of SAM and the Ki in the presence of MTA)	50 to 500
CC(=O)N1CC(Nc2cc(C(=O)NC[C@@H](O)[C@@H]3Cc4ccc(OCc5ocnc5C)cc4CN3)nc(N3CCCC3)n2)C1 [Compound 61, 6-[(1-acetylazetidin-3-yl)amino]-N-[(2R)-2-hydroxy-2-[(3S)-7-[(4-methyloxazol-5-yl)methoxy]-1,2,3,4-tetrahydroisoquinolin-3-yl]ethyl]-2-pyrrolidin-1-yl-pyrimidine-4-carboxamide]	< 1000	A* (an IC50 ratio greater than or equal to 10 fold between the IC50 in the HAP1 MTAP-intact cell line and the HAP1 MTAP-deleted cell line)	≥ 10000	50 to 500	< 50	A (a Ki ratio greater than or equal to 10 fold between the Ki in the presence of SAM and the Ki in the presence of MTA)	50 to 500
Cc1ncoc1COc1ccc2c(c1)CN[C@H]([C@H](O)CNC(=O)c1cc(NC3CCC3)nc(N3CCN(C(C)C)CC3)n1)C2 [Compound 63]	< 1000	C* (an IC50 ratio of less than 3 fold between the IC50 in the HAP1 MTAP-intact cell line and the HAP1 MTAP-deleted cell line)	< 1000	50 to 500	< 50	A (a Ki ratio greater than or equal to 10 fold between the Ki in the presence of SAM and the Ki in the presence of MTA)	50 to 500
